Results published in patent US7932262B2 (Novartis AG, priority 2006, dated 2011).

Tests used:
[1] = molecular target: T1, PDK1 kinase (Homo sapiens, UniProt O15530); experiment: PDK1 Kinase Alpha Screen Assay; type: biochemical; settings: PDK1 Kinase Alpha Screen Assay; read-out: PDK1 IC50
T1 sequence (O15530 1-556): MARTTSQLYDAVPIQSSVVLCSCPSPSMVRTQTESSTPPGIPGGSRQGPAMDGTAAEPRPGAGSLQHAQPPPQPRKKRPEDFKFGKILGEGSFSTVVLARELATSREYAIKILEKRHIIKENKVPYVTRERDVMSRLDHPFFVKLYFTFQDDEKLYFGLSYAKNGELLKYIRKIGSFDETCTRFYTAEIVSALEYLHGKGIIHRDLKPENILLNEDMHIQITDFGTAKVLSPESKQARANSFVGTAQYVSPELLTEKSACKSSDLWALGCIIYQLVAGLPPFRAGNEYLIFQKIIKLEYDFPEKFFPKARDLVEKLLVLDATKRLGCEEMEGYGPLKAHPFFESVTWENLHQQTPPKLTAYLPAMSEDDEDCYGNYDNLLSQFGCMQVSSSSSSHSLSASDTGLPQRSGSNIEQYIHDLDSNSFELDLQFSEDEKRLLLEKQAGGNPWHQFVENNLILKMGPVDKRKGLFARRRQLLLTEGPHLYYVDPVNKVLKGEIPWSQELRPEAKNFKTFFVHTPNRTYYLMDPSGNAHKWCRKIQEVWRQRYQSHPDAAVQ
Method in brief: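 PDK1 phosphorylated 50 nM biotinylated PDK1-4 peptide with 10 uM ATP in Tris pH 7.5, 10 mM MgCl2, 2 mM DTT, 2.5% DMSO for 3-18 hours. After EDTA stop, phosphopeptide was detected by AlphaScreen using phospho-(Ser/Thr) PKA substrate antibody with protein A/streptavidin beads, read after overnight incubation.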

[2] = tested on: A2780 cells; experiment: Cell Proliferation Assay (Cell Titer Glo), A2780; type: cell-based; settings: Homo sapiens; cell proliferation, A2780 cells; read-out: CPEC50 A2780
Method in brief: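 Cells seeded at 1000/well, allowed to adhere 3-5 h, then exposed to DMSO-dissolved compounds for 3 days at 37° C., 5% CO2. Medium replaced before Cell Titer Glo addition; luminescence read after 10 min.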

[3] = tested on: PC3MM cells; experiment: Cell Proliferation Assay (Cell Titer Glo), PC3MM; type: cell-based; settings: cell proliferation, PC3MM cells; read-out: CPEC50 PC3MM
Experimental: IV. Cell Proliferation Assay Protocol:
A2780, PC-3, or PC3MM cells were seeded at 1000 cells/well in 100 μL/well (10.000 cells/mL) growth media in 96-well plates. Cells were allowed to adhere to the bottom of plates for 3-5 hours in a 37° C. 5% CO2 incubator. Compounds were dissolved in DMSO and then transferred to the cell plates. The cells were incubated with the compounds for 3 days in a 37° C. 5% CO2 incubator. The growth medium containing the compounds was then removed from the cells and fresh medium was added, followed by 100 μL of Cell Titer Glo assay reagent (Promega). This mixture was shaken for 1 minute and then incubated without shaking for 10 minutes. Activity determinations for the compounds were made by detection on a Trilux Instrument.

Row | IC50 [1] [µM] | EC50 [2] [µM] | EC50 [3] [µM] | Compound
1 | < 5 | < 5 | < 5 | CN1CCCC(Oc2cccc3cnc(Nc4ccc(S(N)(=O)=O)cc4)nc23)C1 (stereo not drawn) [Compound 733, 4-(8-(1-methylpiperidin-3-yloxy)quinazolin-2-ylamino)benzenesulfonamide]
2 | < 5 | < 5 | < 5 | NC(=O)c1cccc(-c2cccc3cnc(Nc4ccc(S(N)(=O)=O)cc4)nc23)c1 [Compound 734, 3-(2-(4-sulfamoylphenylamino)quinazolin-8-yl)benzamide]
3 | < 5 | < 5 | < 5 | CS(=O)(=O)c1cccc(-c2cccc3cnc(Nc4ccc(S(N)(=O)=O)cc4)nc23)c1 [Compound 735, 4-(8-(3-(methysulfonyl)phenyl)quinazolin-2-ylamino)benzenesulfonamide]
4 | < 5 | < 5 | < 5 | CS(=O)(=O)Nc1cccc(-c2cccc3cnc(Nc4ccc(S(N)(=O)=O)cc4)nc23)c1 [Compound 736, 4-(8-(3-(methylsulfonamido)phenyl)quinazolin-2-ylamino)benzenesulfonamide]
5 | < 5 | < 5 | < 5 | CC(=O)Nc1cccc(-c2cccc3cnc(Nc4ccc(S(N)(=O)=O)cc4)nc23)c1 [Compound 737, N-(3-(2-(4-sulfamoylphenylamino)quinazolin-8-yl)phenyl)acetamide]
6 | < 5 | < 5 | < 5 | NS(=O)(=O)c1ccc(Nc2ncc3cccc(-c4cccc(S(N)(=O)=O)c4)c3n2)cc1 [Compound 738, 3-(2-(4-sulfamoylphenylamino)quinazolin-8-yl)benzenesulfonamide]
7 | < 5 | < 5 | < 5 | NS(=O)(=O)c1ccc(Nc2ncc3cccc(-c4ccc5c(c4)OCO5)c3n2)cc1 [Compound 739, 4-(8-(benzo[d][1,3]dioxol-5-yl)quinazolin-2-ylamino)benzenesulfonamide]
8 | < 5 | 5 to 10 | < 5 | NC(=O)c1ccc(-c2cccc3cnc(Nc4ccc(S(N)(=O)=O)cc4)nc23)cc1 [Compound 740, 4-(2-(4-sulfamoylphenylamino)quinazolin-8-yl)benzamide]
9 | < 5 | < 5 | < 5 | NS(=O)(=O)c1ccc(Nc2ncc3cccc(-c4ccnc(F)c4)c3n2)cc1 [Compound 741, 4-(8-(2-fluoropyridin-4-yl)quinazolin-2-ylamino)benzenesulfonamide]
10 | < 5 | 5 to 10 | < 5 | NS(=O)(=O)c1ccc(Nc2ncc3cccc(-c4cccnc4)c3n2)cc1 [Compound 742, 4-(8-(pyridin-3-yl)quinazolin-2-ylamino)benzenesulfonamide]
11 | < 5 | 5 to 10 | < 5 | NS(=O)(=O)c1ccc(Nc2ncc3cccc(-c4ccncc4)c3n2)cc1 [Compound 743, 4-(8-(pyridin-4-yl)quinazolin-2-ylamino)benzenesufonamide]
12 | < 5 | < 5 | < 5 | COCCNc1cc(-c2cccc3cnc(Nc4ccc(S(N)(=O)=O)cc4)nc23)ccn1 [Compound 745, 4-(8-(2-(2-methoxyethylamino)pyridin-4-yl)quinazolin-2-ylamino)benzenesulfonamide]
13 | < 5 | 5 to 10 | < 5 | CC(=O)NCCNc1cc(-c2cccc3cnc(Nc4ccc(S(N)(=O)=O)cc4)nc23)ccn1 [Compound 746, N-(2-(4-(2-(4-sulfamoylphenylamino)quinazolin-8-yl)pyridin-2-ylamino)ethyl)acetamide]
14 | < 5 | < 5 | < 5 | NS(=O)(=O)c1ccc(Nc2ncc3cccc(-c4ccnc(NCCN5CCCC5)c4)c3n2)cc1 [Compound 747, 4-(8-(2-(2-(pyrroIidin-1-yl)ethylamino)pyridin-4-yl)quinazolin-2-ylamino)benzenesulfonamide]
15 | < 5 | < 5 | < 5 | NS(=O)(=O)c1ccc(Nc2ncc3cccc(-c4cnoc4)c3n2)cc1 [Compound 748, 4-(8-(isoxazol-4-yl)quinazolin-2-ylamino)benzenesulfonamide]
16 | < 5 | < 5 | < 5 | NS(=O)(=O)c1ccc(Nc2ncc3cccc(-c4cn[nH]c4)c3n2)cc1 [Compound 751, 4-(8-(1H-pyrazol-yl)quinazolin-2-ylamino)benzenesulfonamide]
17 | < 5 | < 5 | < 5 | NS(=O)(=O)c1ccc(Nc2ncc3cccc(-c4ccnc(N5CCOCC5)c4)c3n2)cc1 [Compound 752, 4-(8-(2-morpholinopyridin-4-yl)quinazolin-2-ylamino)benzenesulfonamide]
18 | < 5 | < 5 | < 5 | CN1CCN(c2cc(-c3cccc4cnc(Nc5ccc(S(N)(=O)=O)cc5)nc34)ccn2)CC1 [Compound 753, 4-(8-(2-(4-methylpiperazin-1-yl)pyridin-4-yl)quinazolin-2-ylamino)benzenesulfonamide]
19 | < 5 | < 5 | < 5 | NS(=O)(=O)c1ccc(Nc2ncc3cccc(-c4ccnc(N5CCS(=O)(=O)CC5)c4)c3n2)cc1 [Compound 754]
20 | < 5 | < 5 | < 5 | NS(=O)(=O)c1ccc(Nc2ncc3cccc(-c4ccnc(N5CCNC(=O)C5)c4)c3n2)cc1 [Compound 755, 4-(8-(2-(3-oxopiperazin-1-yl)pyridin-4-yl)quinazolin-2-ylamino)benzenesulfonamide]
21 | < 5 | 5 to 10 | < 5 | Nc1cc(-c2cccc3cnc(Nc4ccc(S(N)(=O)=O)cc4)nc23)ccn1 [Compound 756, 4-(8-(2-aminopyridin-4-yl)quinazolin-2-ylamino)benzenesulfonamide]
22 | < 5 | < 5 | < 5 | NS(=O)(=O)c1ccc(Nc2ncc3cccc(-c4ccccc4)c3n2)cc1 [Compound 757, 4-(8-phenylquinazolin-2-ylamino)benzenesulfonamide]
23 | < 5 | 5 to 10 | < 5 | NC(=O)c1ccc(-c2ccc3cnc(Nc4ccc(S(N)(=O)=O)cc4)nc3c2)cc1F [Compound 759, 2-fluoro-4-(2-(4-sulfamoylphenylamino)quinazolin-7-yl)benzamide]
24 | < 5 | 5 to 10 | < 5 | NS(=O)(=O)c1ccc(Nc2ncc3cccc(C(=O)N4CCCC4)c3n2)cc1 [Compound 760, 4-(8-(pyrrolidine-1-carbonyl)quinazolin-2-ylamino)benzenesulfonamide]
25 | < 5 | < 5 | 5 to 10 | COCCNC(=O)c1cccc2cnc(Nc3ccc(S(N)(=O)=O)cc3)nc12 [Compound 761, N-(2-methoxyethyl)-2-(4-sulfamoylphenylamino)quinazoline-8-carboxamide]
26 | < 5 | < 5 | 5 to 10 | NS(=O)(=O)c1ccc(Nc2ncc3cccc(C(=O)NCCN4CCCC4)c3n2)cc1 [Compound 762, N-(2-(pyrrolidin-1-yl)ethyl)-2-(4-sulfamoylphenylamino)quinazoline-8-carboxamide]
27 | 10 to 25 | 5 to 10 | 10 to 25 | COCCN1CCN(C(=O)c2ccc3cnc(Nc4ccc(S(N)(=O)=O)cc4)nc3c2)CC1 [Compound 764, 4-(7-(4-(2-methoxyethyl)piperazine-1-carbonyl)quinazolin-2-ylamino)benzenesulfonamide]
28 | < 5 | < 5 | < 5 | COc1cc(-c2cccc3cnc(Nc4ccc(S(N)(=O)=O)cc4)nc23)c(Cl)cn1 [Compound 765, 4-(8-(5-chloro-2-methoxypyridin-4-yl)quinazolin-2-ylamino)benzenesulfonamide]
29 | < 5 | 5 to 10 | 10 to 25 | CC(C)N1CCN(C(=O)c2ccc3cnc(Nc4ccc(S(N)(=O)=O)cc4)nc3c2)CC1 [Compound 766, 4-(7-(4-isopropylpiperazine-1-carbonyl)quinazolin-2-ylamino)benzenesulfonamide]
